Assays:
[1] = system: CC49-TCO pretargeted LS174T colon carcinoma xenografts; assay: Pretargeted blocking assay with [111In]Q (Example 140); type: in vivo, BALB/c mice; settings: as listed in Table 6, value of the unlabeled Tz
Procedure: All animal studies were approved by the Danish Animal Welfare Council, ministry of Justice. Five weeks old female nude BALB/c mice (Charles River, Sulzfeld, Germany) were allowed to acclimatize for one week with access to water and chow ad libitum. Human colon cancer cell line (LS174T; obtained from ATCC) was cultured in minimum essential medium (MEM) supplemented with 10% fetal bovine serum, 1% L-Glutamine, 1% Sodium pyruvate, 1% non-essential amino acids, and 1% penicillin-streptomycin at 37° C. and 5% CO2. Cells were harvested by trypsination at a confluence of 70-90% and subcutaneous tumors were established in the left flank of the 6 weeks old animals by inoculation of ˜5×10^6 LS174T cells resuspended in sterile PBS (100 μL) and allowed to grow for 7-10 days. Tumors were measured using a caliper and the volume calculated using the formula volume=½(length×width^2).
The assay was inspired by receptor blocking experiments and based on the pretargeted imaging approach reported by Rossin et al. An ^111In-labeled Tz [^111In]Q was used in pair with TCO-modified CC49, a non-internalizing mAb that targets the tumor-associated glycoprotein 72 (TAG72), as a benchmark model for the in vivo ligation.
The TCO-modification of CC49 was carried out according to Rossin et al. To study the in vivo ligation performance of Tz-derivatives 1a-45a, BALB/c mice bearing LS174T colon carcinoma xenografts were injected intravenously (i.v.) with CC49-TCO 72 h prior to i.v. injection of the unlabeled Tz, followed by administration of [^111In]Q 1 h later. The animals were euthanized after 22 h and an ex vivo biodistribution was carried out to quantify the tumor uptake of [111 In]Q (FIG. 15). The efficiency of the in vivo ligation of the unlabeled Tz can thus be correlated to a reduced uptake of [111 In]Q (FIG. 15). As a control, blocking was performed using the non-radioactive precursor of [^111In]Q, which blocked ≥99% of the [^111In]Q tumor uptake. A group of CC49-TCO pretreated mice were injected exclusively with [^111In]Q (without blocking) and the determined uptake was used as reference value (100%) to normalize the observed changes in tumor uptake in blocking experiments.
All of these probes include H-phenyl-, pyrimidyl-phenyl-, or bis(pyridyl)-Tz-scaffolds with second-order rate constants for the reaction with TCO of >70 M 1 s 1 (1,4-dioxane, 25° C.) or of >39,000 M 1 s 1 (DPBS, 37° C.) (cf. Table 5). Next, potential correlations between the blocking effect, the c log D7.4 and the TPSA, as well as IEDDA reactivity were investigated. […] However, a distinct relationship between c log D7.4 values and the blocking effect was evidently observed when comparing Tz-derivatives with similar IEDDA reactivity (FIG. 16C, 16D). For all Tz-scaffolds a Pearson's correlation coefficient >0.78 was found. […] The blocking effect of non-radiolabeled Tz was determined as the change in tumor uptake of [111 In]Q 22 h p.i. Each Tz was administered 1 h prior to [111 In]Q and the uptake normalized to a group of animals were no blocking was performed (control). Data represent mean from n=3 mice/group. Correlation of blocking effect and c log D7.4 for Tz-derivatives with similar IEDDA reactivity (as shown in FIGS. 16C and D) where data was fitted to exponential growth equation Y=Y0 ekx (dotted line). The statistical analysis of the correlation between tumor uptake and c log D7.4 for the different groups of Tz-derivatives (shown in Table 7) was obtained by Pearson's correlation coefficient (r) which describes the goodness of fit between the blocking effect and c log D7.4. Notes: a Reaction of representative Tz with unsubstituted TCO; “Reaction of representative Tz with TCO-PEG4;” Measured for Tz-scaffold A only; n.d.=not determined.

[2] = system: CC49-TCO pretargeted LS174T tumor xenografts; assay: Pretargeted PET imaging with six 18F-labeled Tz-derivatives (Example 140); type: in vivo, BALB/c nude mice; settings: PET 1 h p.i., n=3-4 per group
Procedure: Mice (n=3-4 per group) were injected i.v. with either CC49-TCO or 0.9% saline (control experiments). After 72 h, ^18F-labeled Tz (5-10 MBq) were administered and the mice were PET/CT-scanned 1 h p.i. A 3D region of interest (ROI) was created on the entire tumor volume, as well as heart and muscle tissue, and the uptake was quantified as percentage of the injected dose per gram (mean % ID/g), tumor-to-blood (T/B) and tumor-to-muscle (T/M) ratios (FIG. 18A-D). FIG. 18 (A) is a schematic illustration of the pretargeting experiment and the research question: Is there a correlation between the blocking effect and the PET imaging contras. (B) Image-derived mean uptake values are presented as percentage of the injected dose per gram (% ID/g) in tumor. (C) Tumor-to-muscle (T/M) ratios (n=4 mice, except for [^18F]3, n=3). Data is represented as mean±S.D. (*p<0.05 and *** p<0.001). For all groups n=4 mice (except [^18F]3a where n=3) (D) Correlation between the blocking effect of the unlabeled Tz-derivatives 1a, 3a, 19a, 26a, 44a, and 45a and the T/M-ratios for the corresponding ^18F-labeled compounds observed by in vivo pretargeted PET imaging. A strong correlation was found (linear regression: R2=0.78, p=0.019, n=6). Data is represented as mean±S.D. The asterisk indicates significant difference (* p<0.05 and *** p<0.001) when compared to control. (E) Representative images of PET scans 1 h p.i. of the radiolabeled Tz ([^18F]1a, [^18F]3a, [^18F]19a, [^18F]26a, [^18F]44a and [^18F]45a) in pretargeted PET imaging studies (T indicates the position of the tumor).
This difference was also observed for the three ^18F-labeled Tz-derivatives showing specific tumor accumulation ([^18F]3a, [^18F]19a and [^18F]45a), but not for the non-accumulating probes [^18F]1a and [^18F]26a (FIG. 18B). Binding to residual mAb in the blood pool is a frequently reported challenge in pretargeted imaging approaches, and has been addressed by the development of clearing agents.

[3] = In vivo stability of 18F-labeled Tz-derivatives, plasma radio-TLC; settings: naïve mice, n=4
Text: In order to verify that the results from the blocking study can be used to predict the outcome for in vivo PET imaging, 18 Tz-derivatives from the first library were selected. The selection was based on criteria such as, the possibility for ^18F-labeling, structural diversity, lipophilicities and distinct IEDDA reactivities. For this purpose, we decided to use an indirect radiolabeling approach, enabling the combination of different building blocks to rapidly access a series of ^18F-labeled Tz-derivatives. The Cu-catalyzed azide-alkyne [3+2] cycloaddition (CuAAC) appeared to be suitable in this respect, as it allows for fast and efficient radiolabeling under mild reaction conditions. Six precursor Tz-alkynes (I-VI) were prepared and reacted with three ^18F-labeled azides ([^18F]Az1-Az3) to obtain 18 different [^18F]Tz-probes (FIG. 17). Notes to Table 6 showing the results obtained: ^aRCYs were decay-corrected to the starting amount of radioactivity for the respective azide or *RCY was determined starting from ^18F—. ^bMolar activities (Am) differ due to the use of different cyclotrons. ^cRCP was determined by radio-HPLC. ^dIn vivo stability of [^18F]Tz was assessed by determining the fraction (%) of radioactivity corresponding to intact compound after 30 min (n=4) from radio-TLC analysis. n.d.=not determined.
Next, we investigated whether there is a relationship between the in vivo stability of Tz-derivatives and their blocking ability. Fifteen ^18F-labeled tetrazines were studied in naïve mice. Blood was collected after 30 min, and plasma samples were analyzed by radio-TLC for stability assessment (Table 6). […] Consequently, six [^18F]Tz ([^18F]1a, [^18F]3a, [^18F]19a, [^18F]26a, [^18F]44a, and [^18F]45a) were selected for further in vivo studies solely based on the IEDDA-reactivity (second-order rate constants between 72 and 230 M^−1s^−1) and lipophilicity (c log D7.4 between −1.53 and 2.10). These radiolabeled Tz-probes were used to investigate if the results from the blocking assay can be translated to pretargeted PET imaging at tracer doses.

[4] = Second order rate constants from stopped-flow measurements with TCO at 25° C. in ACN (Table 1); type: physicochemical; settings: second order rate constants estimated from stopped-flow measurements of the alkyne-Tz building block with TCO at 25° C. in ACN
Procedure: In Table 1, the following letters in brackets defines the following: [a] Radiochemical conversion (RCC) and Radiochemical purity (RCP) were determined by radio-HPLC (n=3); [b] Radiochemical yield (RCY) was decay corrected to the starting amount of radioactivity received from the cyclotron and the isolated product without formulation step (n=3); [c] Second order rate constants estimated from stopped-flow measurements of the alkyne-Tz building block with TCO at 25° C. in CAN; [d] No product formed or could not be isolated.
Reaction kinetics of the Tz-derivatives were determined by pseudo-first order measurements in dioxane at 25.0±0.1° C. or PBS at 27.0±0.1° ° C. in a SX20 stopped flow photometer (Applied Photophysics). The pseudo first order rate constant was determined by linearization of the decay curve followed by linear fitting. The second order rate constant was calculated from the pseudo-first order rate constant.

In vivo stability (% intact [^18F]Tz after 30 min) [3]	SMILES	Blocking effect (%) (of unlabeled Tz) [1]	Tumor accumulation in mice pretreated with CC49-TCO compared to control animals [2]	k2 [4]
90%	[18F]CCn1cc(COc2ccc(-c3nncnn3)cc2)nn1 [[^18F]1a]	9%	no significant difference in tumor uptake	–
76%	O[C@@H]1[C@@H](O)[C@H](n2cc(COc3ccc(-c4nncnn4)cc3)nn2)O[C@H](C[18F])[C@H]1O [[^18F]3a]	81%	significantly increased tumor accumulation	–
26%	Cc1nnc(-c2ccc(OCc3cn(CC[18F])nn3)cc2)nn1 [[^18F]5a]	10%	–	–
60%	Cc1nnc(-c2ccc(OCc3cn([C@@H]4O[C@H](C[18F])[C@@H](O)[C@H](O)[C@H]4O)nn3)cc2)nn1 [[^18F]7a]	3%	–	–
10%	[18F]CCn1cc(COc2ccc(-c3nnc(-c4ccccn4)nn3)cc2)nn1 [[^18F]12a]	0%	–	–
43%	O[C@@H]1[C@@H](O)[C@H](n2cc(COc3ccc(-c4nnc(-c5ccccn5)nn4)cc3)nn2)O[C@H](C[18F])[C@H]1O [[^18F]14a]	24%	–	–
32%	[18F]CCn1cc(-c2ccc(-c3nncnn3)cc2)nn1 [[^18F]17a]	0%	–	–
87%	O[C@@H]1[C@@H](O)[C@H](n2cc(-c3ccc(-c4nncnn4)cc3)nn2)O[C@H](C[18F])[C@H]1O [[^18F]19a]	76%	significantly increased tumor accumulation	–
–	O=C(Nc1ccc(-c2nnc(-c3ccccn3)nn2)nc1)c1ccc(-c2cn(CC[18F])nn2)cc1 [[^18F]25a]	16%	–	–
–	O=C(Nc1ccc(-c2nnc(-c3ccccn3)nn2)nc1)c1ccc(-c2cn([C@@H]3O[C@H](C[18F])[C@@H](O)[C@H](O)[C@H]3O)nn2)cc1 [[^18F]27a]	51%	–	–
10%	O=C(CCc1cn(CC[18F])nn1)Nc1ccc(-c2nnc(-c3ccccn3)nn2)nc1 [[^18F]43a]	67%	–	–
42%	O=C(CCc1cn([C@@H]2O[C@H](C[18F])[C@@H](O)[C@H](O)[C@H]2O)nn1)Nc1ccc(-c2nnc(-c3ccccn3)nn2)nc1 [[^18F]45a]	99%	significantly increased tumor accumulation	–
–	[18F]c1cccc(-c2nncnn2)c1 [[^18F]-9]	–	–	222 M⁻¹ s⁻¹
–	[18F]c1ccc(-c2nnc(-c3ccccc3)nn2)cc1 [[^18F]E]	–	–	18 M⁻¹ s⁻¹
–	[18F]c1cccc(-c2nnc(-c3ccccc3)nn2)c1 [[^18F]R]	–	–	30 M⁻¹ s⁻¹
–	[18F]c1ccc(-c2nnc(-c3ccccn3)nn2)cc1 [[^18F]T]	–	–	106 M⁻¹ s⁻¹
–	Cc1nnc(-c2ccc([18F])cc2)nn1 [[^18F]Tz1]	–	–	2.25 M⁻¹ s⁻¹
–	[18F]c1ccc(-c2nnc(-c3ccccn3)nn2)nc1 [[^18F]U]	–	–	206 M⁻¹ s⁻¹
–	[18F]c1ccc(-c2nncnn2)cc1 [[^18F]Y]	–	–	159 M⁻¹ s⁻¹
